# Patent US7601856B2 (Wyeth, priority 2006, dated 2009)
# Read-outs that look alike come from different tables or passages of the source.
# Assays:
# [1] = tested on: isolated rat bladder strips; assay: Inhibition of contractions of isolated rat bladder strips; conditions: for IC50: 0.5 h; for inhibition at 30 µM: read-out: % Inhibition of Contractility @ 30 μM
# Protocol: The compounds of the examples were tested to determine their ability to inhibit contractions of isolated rat bladder strips. See Foster, C. […] Malmgren, A. et al. J.Urol.
# Male Sprague-Dawley rats (150-200 g) were obtained from ACE animal suppliers. Animals were allowed free access to food and water.
# Animals were euthanized by CO2 asphyxiation followed by a bilateral thoracotomy. […] The bladder was opened and then cut into strips 1-2 mm in width and 7-10 mm in length. The strips were subsequently suspended in a 10 ml tissue bath under an initial resting tension of 1.5 g. The strips were held in place by two surgical clips one of which was attached to a fixed hook while the other was attached to an isometric force transducer. […] The carbachol was then washed out and the tissue allowed to relax to its resting level of activity. Following a further 30 minute period of recovery an additional 15 mM KCl were introduced into the tissue bath. […] Following stabilization of this enhanced level of contractile activity, incremental increases in the concentration of test compound or vehicle were introduced into the tissue bath. Contractile activity was measured for each compound or vehicle concentration during the last minute of a 30 minute challenge.
# Isometric force developed by the bladder strips was measured using a force transducer and recorded on a polygraph. Contractile activity was assessed by measuring either the average amplitude of the contractions (baseline to peak force) occurring during a one minute period or, preferably, by integrating the contractile activity with respect to time (one minute measuring period).
# The percentage inhibition of contractile activity evoked by each concentration of a given test compounds was used to generate a concentration-response curve.
# [2] = concentration eliciting 50% inhibition of pre-drug contractile activity, strips stimulated with additional 15 mM KCl, 30 minute challenge per concentration, read-out: IC50
# [3] = maximum percentage inhibition of contractile activity, 30 μM, strips stimulated with additional 15 mM KCl
"IC50 [1, 2] [µM]",Structure (SMILES),"inhibition at 30 µM [1, 3] [%]",also measured
0.2 to 0.7,"CC(C)(C)C(=O)Nc1ccc2oc3c(c2c1)CCCC3 [Example 1, 2,2-DIMETHYL-N-(6,7,8,9-TETRAHYDRO-DIBENZOFURAN-2-YL)-PROPIONAMIDE]",,melting point: 210 to 211 °C
1.2 to 4,"CC(C)CC(=O)Nc1ccc2oc3c(c2c1)CCCC3 [Example 2, 3-METHYL-N-(6,7,8,9-TETRAHYDRO-DIBENZOFURAN-2-YL)-BUTYRAMIDE]",,melting point: 154 to 157 °C
3 to 11,"CC(C)(C)CC(=O)Nc1ccc2oc3c(c2c1)CCCC3 [Example 3, 3,3-DIMETHYL-N-(6,7,8,9-TETRAHYDRO-DIBENZOFURAN-2-YL)-BUTYRAMIDE]",,melting point: 164 to 165 °C
9.1 to 12,"O=C(Cc1ccccc1)Nc1ccc2oc3c(c2c1)CCCC3 [Example 4, 2-PHENYL-N-(6,7,8,9-TETRAHYDRO-DIBENZOFURAN-2-YL)-ACETAMIDE]",,melting point: 180 to 181 °C
,"O=C(Nc1ccc2oc3c(c2c1)CCCC3)C12CC3CC(CC(C3)C1)C2 [Example 5, ADAMANTANE-1-CARBOXYLIC ACID (6,7,8,9-TETRAHYDRO-DIBENZOFURAN-2-YL)-AMIDE]",10 to 30,melting point: 247 to 248 °C
,"CC(C)(C)c1ccc(C(=O)Nc2ccc3oc4c(c3c2)CCCC4)cc1 [Example 6, 4-TERT-BUTYL-N-(6,7,8,9-TETRAHYDRO-DIBENZOFURAN-2-YL)-BENZAMIDE]",10 to 20,melting point: 185 to 186 °C
10 to 15,"O=C(CC1CCCCC1)Nc1ccc2oc3c(c2c1)CCCC3 [Example 7, 2-CYCLOHEXYL-N-(6,7,8,9-TETRAHYDRO-DIBENZOFURAN-2-YL)-ACETAMIDE]",,melting point: 189 to 191 °C
4 to 8,"CCC(=O)Nc1ccc2oc3c(c2c1)CCCC3 [Example 8, N-(6,7,8,9-TETRAHYDRO-DIBENZOFURAN-2-yl)-PROPIONAMIDE]",,melting point: 164 to 165 °C
6 to 8,"CC(C)C(=O)Nc1ccc2oc3c(c2c1)CCCC3 [Example 9, N-(6,7,8,9-TETRAHYDRO-DIBENZOFURAN-2-YL)-ISOBUTYRAMIDE]",,melting point: 206.5 to 208 °C
,"CC(=O)Nc1ccc2oc3c(c2c1)CCCC3 [Example 11, N-(6,7,8,9-TETRAHYDRO-DIBENZOFURAN-2-YL)-ACETAMIDE]",20 to 30,melting point: 195.5 to 197.5 °C
,"Cc1ccccc1C(=O)Nc1ccc2oc3c(c2c1)CCCC3 [Example 12, 2-METHYL-N-(6,7,8,9-TETRAHYDRO-DIBENZOFURAN-2-YL)-BENZAMIDE]",20 to 30,melting point: 209 to 210 °C
6 to 8,"CC(C)(C)OC(=O)N1CCC[C@H]1C(=O)Nc1ccc2oc3c(c2c1)CCCCC3 [Example 54, TERT-BUTYL (2S)-2-[(7,8,9,10-TETRAHYDRO-6H-BENZO[B]CYCLOHEPTA[D]FURAN-2-YLAMINO)CARBONYL]PYRROLIDINE-1-CARBOXYLATE]",,
7 to 10,"CC(C)(C)OC(=O)N[C@@H](Cc1ccncc1)C(=O)Nc1ccc2oc3c(c2c1)CCCCC3 [Example 55, TERT-BUTYL [(1S)-2-OXO-1-(PYRIDIN-4-YLMETHYL)-2-(7,8,9,10-TETRAHYDRO-6H-BENZO[B]CYCLOHEPTA[D]FURAN-2-YLAMINO)ETHYL]CARBAMATE]",,
0.3 to 0.6,"C[C@H](NC(=O)OC(C)(C)C)C(=O)Nc1ccc2oc3c(c2c1)CCCCC3 [Example 56, TERT-BUTYL [(1S)-1-METHYL-2-OXO-2-(7,8,9,10-TETRAHYDRO-6H-BENZO[B]CYCLOHEPTA[D]FURAN-2-YLAMINO)ETHYL]CARBAMATE]",,
,"O=C(Nc1ccc2oc3c(c2c1)CCCCC3)[C@@H]1CCCN1 [Example 57, N-7,8,9,10-TETRAHYDRO-6H-BENZO[B]CYCLOHEPTA[D]FURAN-2-YL-L-PROLINAMIDE]",20 to 30,
,"C[C@H](NC(=O)[C@H](Cc1ccccc1)NC(=O)OCc1ccccc1)C(=O)Nc1ccc2oc3c(c2c1)CCCCC3 [Example 58, N-[(BENZYLOXY)CARBONYL]-L-PHENYLALANYL-N^1-7,8,9,10-TETRAHYDRO-6H-BENZO[B]CYCLOHEPTA[D]FURAN-2-YL-L-ALANINAMIDE]",30 to 40,
1.3 to 2.5,"CC(=O)N1CCC[C@H]1C(=O)Nc1ccc2oc3c(c2c1)CCCCC3 [Example 60, 1-ACETYL-N-7,8,9,10-TETRAHYDRO-6H-BENZO[B]CYCLOHEPTA[D]FURAN-2-YL-L-PROLINAMIDE]",,
,"CC(CC(=O)Nc1ccc2oc3c(c2c1)CCCCCC3)CC(C)(C)C (stereo not shown) [Example 66, N-(6,7,8,9,10,11-HEXAHYDROBENZO[B]CYCLOOCTA[D]FURAN-2-YL)-3,5,5-TRIMETHYLHEXANAMIDE]",5 to 20,
0.6 to 0.8,"O=C(Nc1ccc2oc3c(c2c1)CCCCCC3)c1cccs1 [Example 67, N-(6,7,8,9,10,11-HEXAHYDROBENZO[B]CYCLOOCTA[D]FURAN-2-YL)THIOPHENE-2-CARBOXAMIDE]",,

"IC50 [1, 2] [µM]",Structure (SMILES),"inhibition at 30 µM [1, 3] [%]",also measured
,"CC(C)(C)c1ccc(C(=O)Nc2ccc3oc4c(c3c2)CCCCCC4)cc1 [Example 68, 4-TERT-BUTYL-N-(6,7,8,9,10,11-HEXAHYDROBENZO[B]CYCLOOCTA[D]FURAN-2-YL)BENZAMIDE]",20 to 40,
,"Cc1cccc(C(=O)Nc2ccc3oc4c(c3c2)CCCCCC4)c1 [Example 69, N-(6,7,8,9,10,11-HEXAHYDROBENZO[B]CYCLOOCTA[D]FURAN-2-YL)-3-METHYLBENZAMIDE]",10 to 20,
,"O=C(CCC1CCCC1)Nc1ccc2oc3c(c2c1)CCCCCC3 [Example 70, 3-CYCLOPENTYL-N-(6,7,8,9,10,11-HEXAHYDROBENZO[B]CYCLOOCTA[D]FURAN-2-YL)PROPANAMIDE]",15 to 30,
0.2 to 1,"CCCCCC(=O)Nc1ccc2oc3c(c2c1)CCCCCC3 [Example 71, N-(6,7,8,9,10,11-HEXAHYDROBENZO[B]CYCLOOCTA[D]FURAN-2-YL)HEXANAMIDE]",,
0.8 to 2.2,"O=C(CCc1ccccc1)Nc1ccc2oc3c(c2c1)CCCCCC3 [Example 72, N-(6,7,8,9,10,11-HEXAHYDROBENZO[B]CYCLOOCTA[D]FURAN-2-YL)-3-PHENYLPROPANAMIDE]",,
0.4 to 1.1,"CC(=O)Nc1ccc2oc3c(c2c1)CCCCCC3 [Example 73, N-(6,7,8,9,10,11-HEXAHYDROBENZO[B]CYCLOOCTA[D]FURAN-2-YL)ACETAMIDE]",,
10 to 15,"O=C(Nc1ccc2oc3c(c2c1)CCCCCC3)c1ccco1 [Example 74, N-(6,7,8,9,10,11-HEXAHYDROBENZO[B]CYCLOOCTA[D]FURAN-2-YL)-2-FURAMIDE]",,
,"O=C(Cc1ccccc1)Nc1ccc2oc3c(c2c1)CCCCCC3 [Example 75, N-(6,7,8,9,10,11-HEXAHYDROBENZO[B]CYCLOOCTA[D]FURAN-2-YL)-2-PHENYLACETAMIDE]",,inhibition at 30 µM [1]: 30 to 40%
7 to 14,"COc1cccc(OC)c1C(=O)Nc1ccc2oc3c(c2c1)CCCCCC3 [Example 76, N-(6,7,8,9,10,11-HEXAHYDROBENZO[B]CYCLOOCTA[D]FURAN-2-YL)-2,6-DIMETHOXYBENZAMIDE]",,
,"O=C(Nc1ccc2oc3c(c2c1)CCCCCC3)c1ccncc1 [Example 77, N-(6,7,8,9,10,11-HEXAHYDROBENZO[B]CYCLOOCTA[D]FURAN-2-YL)ISONICOTINAMIDE]",30 to 50,
,"O=C(Cc1ccncc1)Nc1ccc2oc3c(c2c1)CCCCCC3 [Example 78, N-(6,7,8,9,10,11-HEXAHYDROBENZO[B]CYCLOOCTA[D]FURAN-2-YL)-2-PYRIDIN-4-YLACETAMIDE]",,IC50 [1]: 10 to 14 µM
,"O=C(CCl)Nc1ccc2oc3c(c2c1)CCCCCC3 [Example 79, 2-CHLORO-N-6,7,8,9,10,11-HEXAHYDROBENZO[B]CYCLOOCTA[D]FURAN-2-YLACETAMIDE]",,IC50 [1]: 0.2 to 0.4 µM
,"O=C(CO)Nc1ccc2oc3c(c2c1)CCCCCC3 [Example 80, N-6,7,8,9,10,11-HEXAHYDROBENZO[B]CYCLOOCTA[D]FURAN-2-YL-2-HYDROXYACETAMIDE]",30 to 50,
,"CCCCC(=O)Nc1ccc2oc3c(c2c1)CCCCCC3 [Example 81, N-6,7,8,9,10,11-HEXAHYDROBENZO[B]CYCLOOCTA[D]FURAN-2-YLPENTANAMIDE]",,inhibition at 30 µM [1]: 10 to 30%
,"CCCCCCC(=O)Nc1ccc2oc3c(c2c1)CCCCCC3 [Example 82, N-6,7,8,9,10,11-HEXAHYDROBENZO[B]CYCLOOCTA[D]FURAN-2-YLHEPTANAMIDE]",,IC50 [1]: 0.6 to 2 µM
,"CCOC(=O)Nc1ccc2oc3c(c2c1)CCCCC3 [Example 85, ETHYL 7,8,9,10-TETRAHYDRO-6H-BENZO[B]CYCLOHEPTA[D]FURAN-2-YLCARBAMATE]",40 to 60,
7 to 9,"O=C(Nc1ccc2oc3c(c2c1)CCCCCC3)N1CCOCC1 [Example 86, N-(6,7,8,9,10,11-HEXAHYDROBENZO[B]CYCLOOCTA[D]FURAN-2-YL)MORPHOLINE-4-CARBOXAMIDE]",,
,"CN(C)C(=O)Nc1ccc2oc3c(c2c1)CCCCCC3 [Example 87, N′-(6,7,8,9,10,11-HEXAHYDROBENZO[B]CYCLOOCTA[D]FURAN-2-YL)-N,N-DIMETHYLUREA]",25 to 35,
,"CC(C)OC(=O)Nc1ccc2oc3c(c2c1)CCCCCC3 [Example 88, ISOPROPYL 6,7,8,9,10,11-HEXAHYDROBENZO[B]CYCLOOCTA[D]FURAN-2-YLCARBAMATE]",20 to 30,
